Reference: patent US11019818B2, “Herbicidal 3-substituted lactams” (FMC Corporation, priority 2017, dated 2021)

Columns and labels:
Assay type in all cases: in vivo
[1] = system: barnyardgrass (Echinochloa crus-galli); assay: Test A postemergence, barnyardgrass; conditions: 0 to 100 scale (0 no effect, 100 complete control), approx. 10 d
Source text: (§1) Seeds of plant species selected from barnyardgrass (Echinochloa crus-galli), kochia (Kochia scoparia), ragweed (common ragweed, Ambrosia elatior), ryegrass, Italian (Italian ryegrass, Lolium multiflorum), foxtail, green (green foxtail, Setaria viridis), and pigweed (Amaranthus retroflexus) were planted into a blend of loam soil and sand and treated preemergence with a directed soil spray using test chemicals formulated in a non-phytotoxic solvent mixture which included a surfactant. At the same time, plants selected from these weed species and also wheat (Triticum aestivum), corn (Zea mays), blackgrass (Alopecurus myosuroides), and galium (catchweed bedstraw, Galium aparine) were planted in pots containing the same blend of loam soil and sand and treated with postemergence applications of test chemicals formulated in the same manner. Plants ranged in height from 2 to 10 cm and were in the one- to two-leaf stage for the postemergence treatment. Treated plants and untreated controls were maintained in a greenhouse for approximately 10 d, after which time all treated plants were compared to untreated controls and visually evaluated for injury. Plant response ratings, summarized in Table A, are based on a 0 to 100 scale where 0 is no effect and 100 is complete control. A dash (-) response means no test result.

kochia (Kochia scoparia) [2] = assay: Test A postemergence, kochia; conditions: 0 to 100 scale (0 no effect, 100 complete control), approx. 10 d
Source text: as §1

[3] = system: ragweed (common ragweed, Ambrosia elatior); assay: Test A postemergence, ragweed; conditions: 0 to 100 scale (0 no effect, 100 complete control), approx. 10 d
Source text: as §1

[4] = system: ryegrass, Italian (Italian ryegrass, Lolium multiflorum); assay: Test A postemergence, Italian ryegrass; conditions: 0 to 100 scale (0 no effect, 100 complete control), approx. 10 d
Source text: as §1

[5] = system: foxtail, green (green foxtail, Setaria viridis); assay: Test A postemergence, green foxtail; conditions: 0 to 100 scale (0 no effect, 100 complete control), approx. 10 d
Source text: as §1

[6] = system: pigweed (Amaranthus retroflexus); assay: Test A postemergence, pigweed; conditions: 0 to 100 scale (0 no effect, 100 complete control), approx. 10 d
Source text: as §1

[7] = system: wheat (Triticum aestivum); assay: Test A postemergence, wheat; conditions: 0 to 100 scale (0 no effect, 100 complete control), approx. 10 d
Source text: as §1

corn (Zea mays) = assay: Test A postemergence, corn; conditions: 0 to 100 scale (0 no effect, 100 complete control), approx. 10 d
Source text: as §1

[8] = system: blackgrass (Alopecurus myosuroides); assay: Test A postemergence, blackgrass; conditions: 0 to 100 scale (0 no effect, 100 complete control), approx. 10 d
Source text: as §1

[9] = system: galium (catchweed bedstraw, Galium aparine); assay: Test A postemergence, galium; conditions: 0 to 100 scale (0 no effect, 100 complete control), approx. 10 d
Source text: as §1

[10] = system: barnyardgrass (Echinochloa crus-galli); assay: Test A preemergence, barnyardgrass; conditions: 0 to 100 scale (0 no effect, 100 complete control), approx. 10 d
Source text: as §1

kochia (Kochia scoparia) [11] = assay: Test A preemergence, kochia; conditions: 0 to 100 scale (0 no effect, 100 complete control), approx. 10 d
Source text: as §1

[12] = system: ragweed (common ragweed, Ambrosia elatior); assay: Test A preemergence, ragweed; conditions: 0 to 100 scale (0 no effect, 100 complete control), approx. 10 d
Source text: as §1

[13] = system: ryegrass, Italian (Italian ryegrass, Lolium multiflorum); assay: Test A preemergence, Italian ryegrass; conditions: 0 to 100 scale (0 no effect, 100 complete control), approx. 10 d
Source text: as §1

[14] = system: foxtail, green (green foxtail, Setaria viridis); assay: Test A preemergence, green foxtail; conditions: 0 to 100 scale (0 no effect, 100 complete control), approx. 10 d
Source text: as §1

[15] = system: pigweed (Amaranthus retroflexus); assay: Test A preemergence, pigweed; conditions: 0 to 100 scale (0 no effect, 100 complete control), approx. 10 d
Source text: as §1

[16] = system: barnyardgrass (Echinochloa crus-galli); assay: Test B flooded paddy test, barnyardgrass; conditions: Flood, 250 g ai/ha; applied to paddy water at 2-leaf stage; visual rating after 13 to 15 d; scale 0 to 100, 0 is no effect, 100 is complete control
Procedure: (§2) Plant species in the flooded paddy test selected from rice (Oryza sativa), sedge, umbrella (small-flower umbrella sedge, Cyperus difformis), ducksalad (Heteranthera limosa), and barnyardgrass (Echinochloa crus-galli) were grown to the 2-leaf stage for testing. At time of treatment, test pots were flooded to 3 cm above the soil surface, treated by application of test compounds directly to the paddy water, and then maintained at that water depth for the duration of the test. Treated plants and controls were maintained in a greenhouse for 13 to 15 d, after which time all species were compared to controls and visually evaluated. Plant response ratings, summarized in Table B, are based on a scale of 0 to 100 where 0 is no effect and 100 is complete control. A dash (-) response means no test result.

[17] = system: ducksalad (Heteranthera limosa); assay: Test B flooded paddy test, ducksalad; conditions: Flood, 250 g ai/ha; applied to paddy water at 2-leaf stage; visual rating after 13 to 15 d; scale 0 to 100, 0 is no effect, 100 is complete control
Procedure: as §2

rice (Oryza sativa) = assay: Test B flooded paddy test, rice; conditions: Flood, 250 g ai/ha; applied to paddy water at 2-leaf stage; visual rating after 13 to 15 d; scale 0 to 100, 0 is no effect, 100 is complete control
Procedure: as §2

[18] = system: sedge, umbrella (small-flower umbrella sedge, Cyperus difformis); assay: Test B flooded paddy test, umbrella sedge; conditions: Flood, 250 g ai/ha; applied to paddy water at 2-leaf stage; visual rating after 13 to 15 d; scale 0 to 100, 0 is no effect, 100 is complete control
Procedure: as §2

Row | Compound | Plant response rating, Barnyardgrass ([1]; 31 g ai/ha) | Plant response rating, Barnyardgrass ([1]; 125 g ai/ha) | Plant response rating, Kochia (kochia (Kochia scoparia) [2]; 31 g ai/ha) | Plant response rating, Kochia (kochia (Kochia scoparia) [2]; 125 g ai/ha) | Plant response rating, Ragweed ([3]; 31 g ai/ha) | Plant response rating, Ragweed ([3]; 125 g ai/ha) | Plant response rating, Ryegrass, Italian ([4]; 31 g ai/ha) | Plant response rating, Ryegrass, Italian ([4]; 125 g ai/ha) | Plant response rating, Foxtail, Green ([5]; 31 g ai/ha) | Plant response rating, Foxtail, Green ([5]; 125 g ai/ha) | Plant response rating, Pigweed ([6]; 31 g ai/ha) | Plant response rating, Pigweed ([6]; 125 g ai/ha) | Plant response rating, Wheat ([7]; 31 g ai/ha) | Plant response rating, Wheat ([7]; 125 g ai/ha) | Plant response rating, Corn (corn (Zea mays); 31 g ai/ha) | Plant response rating, Corn (corn (Zea mays); 125 g ai/ha) | Plant response rating, Blackgrass ([8]; 31 g ai/ha) | Plant response rating, Blackgrass ([8]; 125 g ai/ha) | Plant response rating, Galium ([9]; 31 g ai/ha) | Plant response rating, Galium ([9]; 125 g ai/ha) | other results
1 | CN(C)CC1(C(=O)Nc2cccc(F)c2F)C(=O)N(C)CC1c1ccc(C(F)(F)F)cc1 (stereo not drawn) [Compound 9] | 70 | 90 | 50 | 70 | 30 | 30 | 50 | 60 | 50 | 90 | 30 | 80 | 30 | 60 | 40 | 50 | 50 | 60 | 60 | 60 | Plant response rating, Barnyardgrass ([10]; 31 g ai/ha): 90; Plant response rating, Barnyardgrass ([10]; 125 g ai/ha): 90; Plant response rating, Kochia (kochia (Kochia scoparia) [11]; 31 g ai/ha): 30; Plant response rating, Kochia (kochia (Kochia scoparia) [11]; 125 g ai/ha): 70; Plant response rating, Ragweed ([12]; 31 g ai/ha): 0; Plant response rating, Ragweed ([12]; 125 g ai/ha): 60; Plant response rating, Ryegrass, Italian ([13]; 31 g ai/ha): 60; Plant response rating, Ryegrass, Italian ([13]; 125 g ai/ha): 80; Plant response rating, Foxtail, Green ([14]; 31 g ai/ha): 90; Plant response rating, Foxtail, Green ([14]; 125 g ai/ha): 90; Plant response rating, Pigweed ([15]; 31 g ai/ha): 70; Plant response rating, Pigweed ([15]; 125 g ai/ha): 80; Plant response rating, Barnyardgrass [16]: 65; Plant response rating, Ducksalad [17]: 95; Plant response rating, Rice (rice (Oryza sativa)): 0; Plant response rating, Sedge, Umbrella [18]: 0
2 | (3S,4R)-3-acetyl-N-(2,3-difluorophenyl)-1-methyl-2-oxo-4-[4-(trifluoromethyl)phenyl]-3-pyrrolidinecarboxamide [Compound 3] | 40 | 70 | 0 | 60 | 0 | 40 | 40 | 50 | 0 | 60 | 40 | 60 | 0 | 40 | 10 | 80 | 20 | 30 | 40 | 50 | Plant response rating, Barnyardgrass ([10]; 31 g ai/ha): 80; Plant response rating, Barnyardgrass ([10]; 125 g ai/ha): 90; Plant response rating, Kochia (kochia (Kochia scoparia) [11]; 31 g ai/ha): 0; Plant response rating, Kochia (kochia (Kochia scoparia) [11]; 125 g ai/ha): 50; Plant response rating, Ragweed ([12]; 31 g ai/ha): 0; Plant response rating, Ragweed ([12]; 125 g ai/ha): 20; Plant response rating, Ryegrass, Italian ([13]; 31 g ai/ha): 20; Plant response rating, Ryegrass, Italian ([13]; 125 g ai/ha): 40; Plant response rating, Foxtail, Green ([14]; 31 g ai/ha): 90; Plant response rating, Foxtail, Green ([14]; 125 g ai/ha): 90; Plant response rating, Pigweed ([15]; 31 g ai/ha): 20; Plant response rating, Pigweed ([15]; 125 g ai/ha): 100; Plant response rating, Barnyardgrass [16]: 45; Plant response rating, Ducksalad [17]: 80; Plant response rating, Rice (rice (Oryza sativa)): 10; Plant response rating, Sedge, Umbrella [18]: 0
